Test results reported in patent publication US7902361B2, “Pyrimidin-4-yl-3, 4-thione compounds and their use in therapy” (Cyclacel Limited, priority 2003, dated 2011).

What was measured:
Format in all cases: biochemical
[1] = target: CDK9/cyclin T1 (Homo sapiens, UniProt P50750); test: Kinase assay CDK9/cyclin T1; conditions: Ki calculated (Cheng-Prusoff) from experimentally determined IC50 and Km,ATP; read-out: Kinase Inhibition Ki CDK9 - cyclin T1
Experimental: (§1) The compounds from the examples above were investigated for their ability to inhibit the enzymatic activity of various protein kinases. This was achieved by measurement of incorporation of radioactive phosphate from ATP into appropriate polypeptide substrates. Recombinant protein kinases and kinase complexes were produced or obtained commercially. Assays were performed using 96-well plates and appropriate assay buffers (typically 25 mM β-glycerophosphate, 20 mM MOPS, 5 mM EGTA, 1 mM DTT, 1 mM […], pH 7.4), into which were added 2-4 μg of active enzyme with appropriate substrates. The reactions were initiated by addition of Mg/ATP mix (15 mM MgCl2+100 μM ATP with 30-50 kBq per well of [γ-^32P]-ATP) and mixtures incubated as required at 30° C. Reactions were stopped on ice, followed by filtration through p81 filterplates or GF/C filterplates (Whatman Polyfiltronics, Kent, UK). After washing 3 times with 75 mM aq orthophosphoric acid, plates were dried, scintillant added and incorporated radioactivity measured in a scintillation counter (TopCount, Packard Instruments, Pangbourne, Berks, UK). Compounds for kinase assay were made up as 10 mM stocks in DMSO and diluted into 10% DMSO in assay buffer.

[2] = target: CDK1/cyclin B (Homo sapiens, UniProt P06493); test: Kinase assay CDK1/cyclin B (radioactive phosphate incorporation); conditions: Ki calculated (Cheng-Prusoff) from experimentally determined IC50 and Km,ATP; read-out: Kinase Inhibition Ki CDK1 - cyclin B
Experimental: as §1, with “The reactions were initiated by addition of Mg/ATP mix (15 mM MgCl2+100 μM ATP with 30-50 kBq per well of [γ-^32P]-ATP) and mixtures incubated as required at 30° C.” left out

[3] = target: CDK2/cyclin E (Homo sapiens, UniProt P24941); test: Kinase assay CDK2/cyclin E; conditions: Ki calculated (Cheng-Prusoff) from experimentally determined IC50 and Km,ATP; read-out: Kinase Inhibition Ki CDK2 - cyclin E
Experimental: as §1, with “The reactions were initiated by addition of Mg/ATP mix (15 mM MgCl2+100 μM ATP with 30-50 kBq per well of [γ-^32P]-ATP) and mixtures incubated as required at 30° C.” left out

[4] = target: CDK7/cyclin H (Homo sapiens, UniProt P50613); test: Kinase assay CDK7/cyclin H; conditions: Ki calculated (Cheng-Prusoff) from experimentally determined IC50 and Km,ATP; read-out: Kinase Inhibition Ki CDK7 - cyclin H
Experimental: as §1

[5] = target: T1, aurora A (Homo sapiens, UniProt O14965); test: Kinase assay aurora A; conditions: Ki calculated (Cheng-Prusoff) from experimentally determined IC50 and Km,ATP; read-out: Kinase Inhibition Ki Aurora A
T1 sequence (O14965 1-403): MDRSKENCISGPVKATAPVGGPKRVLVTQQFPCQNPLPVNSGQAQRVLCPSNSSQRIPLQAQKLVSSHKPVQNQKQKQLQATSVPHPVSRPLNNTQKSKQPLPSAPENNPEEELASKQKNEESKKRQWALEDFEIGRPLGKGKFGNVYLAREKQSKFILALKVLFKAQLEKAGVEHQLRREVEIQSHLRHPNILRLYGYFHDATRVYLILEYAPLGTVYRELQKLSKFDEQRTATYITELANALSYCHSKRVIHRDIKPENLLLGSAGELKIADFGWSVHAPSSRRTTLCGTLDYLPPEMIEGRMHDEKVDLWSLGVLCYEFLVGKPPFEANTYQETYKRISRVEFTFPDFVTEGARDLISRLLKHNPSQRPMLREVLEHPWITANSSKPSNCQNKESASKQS
Experimental: as §1, with “The reactions were initiated by addition of Mg/ATP mix (15 mM MgCl2+100 μM ATP with 30-50 kBq per well of [γ-^32P]-ATP) and mixtures incubated as required at 30° C.” left out

[6] = target: CDK2/cyclin A (Homo sapiens, UniProt P24941); test: Kinase assay CDK2/cyclin A; conditions: Ki calculated (Cheng-Prusoff) from experimentally determined IC50 and Km,ATP; read-out: Kinase Inhibition Ki CDK2 - cyclin A
Experimental: as §1, with “The reactions were initiated by addition of Mg/ATP mix (15 mM MgCl2+100 μM ATP with 30-50 kBq per well of [γ-^32P]-ATP) and mixtures incubated as required at 30° C.” left out

[7] = target: CDK4/cyclin D1 (Homo sapiens, UniProt P11802); test: Kinase assay CDK4/cyclin D1; conditions: Ki calculated (Cheng-Prusoff) from experimentally determined IC50 and Km,ATP; read-out: Kinase Inhibition Ki CDK4 - cyclin D1
Experimental: as §1

[8] = target: T2, GSK3β (Homo sapiens, UniProt P49841); test: GSK3β in vitro kinase assay; conditions: recombinant human GSK3β, 100 μM ATP
T2 construct: purchased New England Biolabs
Experimental: Both isoforms of GSK3 (α and β) are involved in the regulation of glycogen synthase activity—key enzyme in the glycogen metabolism.
A 10-point titration was set up to determine the IC50 values of selected example compounds against GSK3β. Assays were performed using 96-well microtiter plates with a final volume of 25 μL per well. Each assay contained 1.5 units of GSK3β(New England Biolabs), 200 μM CREB phosphopeptide ([…]pSYR, Alta Biosciences), 20 mM Tris HCl pH7.5, 5 mM DTT, 15 mM MgCl2 supplemented with 100 μM ATP and 0.5 μCi of [γ-^32P] ATP plus or minus inhibitor in 2% DMSO. Assays were carried out for 30 minutes at 30° C. before stopping the reaction by the addition of an equal volume of 75 mM aqueous phosphoric acid. Samples were then spotted onto a p81 filterplate (Whatman) and a vacuum was applied. Wells were washed 3 times with 200 μL of dilute aqueous phosphoric acid before the addition of 50 μL Microscint 40 per well. Incorporation of radioactivity was determined on a Topcount microplate scintillation counter (Packard).

CDK7/cyclin H, sequence (P50613 whole entry, species assumed): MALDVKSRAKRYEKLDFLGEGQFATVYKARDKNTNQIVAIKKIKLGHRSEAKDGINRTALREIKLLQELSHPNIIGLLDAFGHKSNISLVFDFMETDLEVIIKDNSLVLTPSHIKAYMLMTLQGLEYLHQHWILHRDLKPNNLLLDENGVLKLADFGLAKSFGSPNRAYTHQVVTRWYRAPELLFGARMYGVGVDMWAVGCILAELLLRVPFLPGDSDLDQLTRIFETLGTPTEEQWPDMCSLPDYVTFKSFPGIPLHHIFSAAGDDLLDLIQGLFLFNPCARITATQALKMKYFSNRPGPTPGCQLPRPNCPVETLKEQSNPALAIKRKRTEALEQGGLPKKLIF
CDK7/cyclin H, sequence (P51946 whole entry partner, species assumed): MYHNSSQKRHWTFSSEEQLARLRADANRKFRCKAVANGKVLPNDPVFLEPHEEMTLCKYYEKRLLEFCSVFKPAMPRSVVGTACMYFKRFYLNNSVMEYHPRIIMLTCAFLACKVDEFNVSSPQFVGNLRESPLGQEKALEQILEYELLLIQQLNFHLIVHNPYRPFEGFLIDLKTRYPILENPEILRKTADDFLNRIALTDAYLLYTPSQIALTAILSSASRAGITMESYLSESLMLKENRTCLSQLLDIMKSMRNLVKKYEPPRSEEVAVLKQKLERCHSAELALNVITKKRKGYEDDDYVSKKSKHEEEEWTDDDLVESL
CDK4/cyclin D1, sequence (P11802 whole entry, species assumed): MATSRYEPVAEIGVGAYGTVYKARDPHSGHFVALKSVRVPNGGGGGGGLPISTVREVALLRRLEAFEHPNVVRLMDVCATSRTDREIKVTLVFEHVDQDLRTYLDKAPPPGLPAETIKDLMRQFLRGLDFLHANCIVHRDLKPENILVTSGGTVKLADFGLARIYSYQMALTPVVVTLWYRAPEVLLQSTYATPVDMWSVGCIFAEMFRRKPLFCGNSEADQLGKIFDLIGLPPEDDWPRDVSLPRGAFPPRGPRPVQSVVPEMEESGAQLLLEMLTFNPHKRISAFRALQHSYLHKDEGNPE
CDK4/cyclin D1, sequence (P24385 whole entry partner, species assumed): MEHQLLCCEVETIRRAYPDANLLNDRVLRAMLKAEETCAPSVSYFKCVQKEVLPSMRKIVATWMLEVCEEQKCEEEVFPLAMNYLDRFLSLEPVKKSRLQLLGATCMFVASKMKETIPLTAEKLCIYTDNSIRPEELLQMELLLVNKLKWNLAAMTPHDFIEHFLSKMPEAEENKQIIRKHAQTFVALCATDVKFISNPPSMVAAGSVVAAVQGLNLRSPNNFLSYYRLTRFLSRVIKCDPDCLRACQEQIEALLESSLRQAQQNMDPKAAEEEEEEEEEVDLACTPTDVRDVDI
T2 sequence (P49841 whole entry): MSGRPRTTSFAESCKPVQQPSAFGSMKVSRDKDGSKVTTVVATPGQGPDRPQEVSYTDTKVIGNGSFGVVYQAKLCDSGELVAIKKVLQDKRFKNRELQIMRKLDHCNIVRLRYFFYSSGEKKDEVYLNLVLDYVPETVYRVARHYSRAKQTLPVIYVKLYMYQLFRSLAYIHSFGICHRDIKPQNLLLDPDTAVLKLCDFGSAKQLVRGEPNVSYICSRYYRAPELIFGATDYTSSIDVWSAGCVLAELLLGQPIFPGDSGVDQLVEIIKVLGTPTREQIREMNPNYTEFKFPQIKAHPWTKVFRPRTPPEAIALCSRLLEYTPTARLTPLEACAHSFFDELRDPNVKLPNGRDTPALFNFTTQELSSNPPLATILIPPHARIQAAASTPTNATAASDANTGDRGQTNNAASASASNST
CDK9/cyclin T1, sequence (P50750 whole entry, species assumed): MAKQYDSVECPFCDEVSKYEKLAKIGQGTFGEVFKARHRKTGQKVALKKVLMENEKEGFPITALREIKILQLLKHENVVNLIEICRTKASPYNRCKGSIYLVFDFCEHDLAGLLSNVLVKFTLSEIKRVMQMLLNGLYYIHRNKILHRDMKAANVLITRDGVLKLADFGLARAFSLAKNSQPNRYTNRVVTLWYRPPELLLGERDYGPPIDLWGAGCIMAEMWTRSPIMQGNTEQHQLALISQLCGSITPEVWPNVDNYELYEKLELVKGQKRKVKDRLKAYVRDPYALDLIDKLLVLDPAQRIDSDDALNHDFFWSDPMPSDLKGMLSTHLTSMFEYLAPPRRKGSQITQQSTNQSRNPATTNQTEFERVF
CDK9/cyclin T1, sequence (O60563 whole entry partner, species assumed): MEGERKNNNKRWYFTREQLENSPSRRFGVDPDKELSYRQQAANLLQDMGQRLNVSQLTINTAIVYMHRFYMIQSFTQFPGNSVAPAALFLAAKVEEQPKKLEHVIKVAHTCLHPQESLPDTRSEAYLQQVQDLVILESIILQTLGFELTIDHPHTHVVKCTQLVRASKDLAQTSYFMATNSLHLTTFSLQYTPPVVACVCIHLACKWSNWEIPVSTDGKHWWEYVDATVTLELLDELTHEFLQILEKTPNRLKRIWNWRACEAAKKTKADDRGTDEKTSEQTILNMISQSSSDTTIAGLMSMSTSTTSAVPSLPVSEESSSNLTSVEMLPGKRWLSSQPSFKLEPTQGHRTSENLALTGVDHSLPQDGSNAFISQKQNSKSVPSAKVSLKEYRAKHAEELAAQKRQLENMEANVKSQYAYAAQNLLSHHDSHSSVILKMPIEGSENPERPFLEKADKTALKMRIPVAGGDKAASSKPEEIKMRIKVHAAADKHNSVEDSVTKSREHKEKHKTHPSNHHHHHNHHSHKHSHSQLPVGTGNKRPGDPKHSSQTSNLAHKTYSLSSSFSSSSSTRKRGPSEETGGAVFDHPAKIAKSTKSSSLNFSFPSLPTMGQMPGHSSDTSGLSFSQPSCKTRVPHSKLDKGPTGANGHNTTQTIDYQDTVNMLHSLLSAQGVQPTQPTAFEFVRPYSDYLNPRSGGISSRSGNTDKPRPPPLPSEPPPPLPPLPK
CDK1/cyclin B, sequence (P06493 whole entry, species assumed): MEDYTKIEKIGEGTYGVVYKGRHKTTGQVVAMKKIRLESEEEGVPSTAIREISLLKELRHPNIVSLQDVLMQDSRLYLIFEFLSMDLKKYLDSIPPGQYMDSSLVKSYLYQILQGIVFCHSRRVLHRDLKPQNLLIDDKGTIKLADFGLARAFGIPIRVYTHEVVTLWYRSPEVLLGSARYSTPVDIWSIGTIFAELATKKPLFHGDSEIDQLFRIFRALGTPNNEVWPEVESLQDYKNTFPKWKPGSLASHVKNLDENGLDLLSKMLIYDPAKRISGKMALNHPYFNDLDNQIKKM
CDK1/cyclin B, sequence (P14635 whole entry partner, species assumed): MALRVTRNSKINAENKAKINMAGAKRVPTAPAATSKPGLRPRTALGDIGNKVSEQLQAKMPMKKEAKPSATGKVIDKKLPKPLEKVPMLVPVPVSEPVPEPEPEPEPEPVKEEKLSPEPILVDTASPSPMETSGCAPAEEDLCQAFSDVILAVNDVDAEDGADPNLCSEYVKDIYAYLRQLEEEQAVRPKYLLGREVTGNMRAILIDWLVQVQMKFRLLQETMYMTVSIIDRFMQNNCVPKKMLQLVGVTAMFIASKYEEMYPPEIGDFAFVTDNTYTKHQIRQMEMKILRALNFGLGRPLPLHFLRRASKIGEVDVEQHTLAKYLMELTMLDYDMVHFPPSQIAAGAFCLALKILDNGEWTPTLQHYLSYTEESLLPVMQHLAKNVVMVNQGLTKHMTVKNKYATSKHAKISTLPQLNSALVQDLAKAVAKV

| SMILES | Ki [1] [nM] | Ki [2] [nM] | Ki [3] [nM] | Ki [4] [nM] | Ki [5] [nM] | Ki [6] [nM] | Ki [7] [nM] | IC50 [8] [nM] |
| --- | --- | --- | --- | --- | --- | --- | --- | --- |
| Cc1c(-c2ccnc(Nc3cccc([N+](=O)[O-])c3)n2)sc(=O)n1C [Compound 1, 3,4-Dimethyl-5-[2-(3-nitro-phenylamino)-pyrimidin-4-yl]-3H-thiazol-2-one] | 0.3 | 1000 | 10 | 2.8 | 700 | 170 | 300 |  |
| Cc1c(-c2ccnc(Nc3ccc(N(C)C)c([N+](=O)[O-])c3)n2)sc(=O)n1C [Compound 22, 5-[2-(4-Dimethylamino-3-nitro-phenylamino)-pyrimidin-4-yl]-3,4-dimethyl-3H-thiazol-2-one] | 7.2 | 82 | 53 | 1.9 | 110 | 0.5 | 1300 |  |
| CCn1c(C)c(-c2ccnc(Nc3ccc(N4CCOCC4)cc3)n2)sc1=O [Compound 27, 3-Ethyl-4-methyl-5-[2-(4-morpholin-4-yl-phenylamino)-pyrimidin-4-yl]-3H-thiazol-2-one] | 690 |  | 500 | 1600 | 33 | 2000 | 3300 |  |
| CC(=O)NCc1cccc(Nc2nccc(-c3sc(=O)n(C)c3C)n2)c1 [Compound 42, N-{3-[4-(3,4-Dimethyl-2-oxo-2,3-dihydro-thiazol-5-yl)-pyrimidin-2-ylamino]-benzyl}-acetamide] | 19 | 580 | 34 | 380 |  | 220 | 770 | 38.5 |
| CCn1c(C)c(-c2ccnc(Nc3cccc(O)c3)n2)sc1=O [Compound 43, 3-Ethyl-5-[2-(3-hydroxy-phenylamino)-pyrimidin-4-yl]-4-methyl-3H-thiazol-2-one] |  |  | 2 | 19 |  |  | 130 | 41.5 |
| CCn1c(C)c(-c2ccnc(Nc3ccc(Cl)cc3)n2)sc1=O [Compound 46, 5-[2-(4-Chloro-phenylamino)-pyrimidin-4-yl]-3-ethyl-4-methyl-3H-thiazol-2-one] | 57 |  | 570 | 790 | 1100 | 400 |  | 101 |
| CCn1c(C)c(-c2ccnc(Nc3ccc([N+](=O)[O-])cc3)n2)sc1=O [Compound 52, 3-Ethyl-4-methyl-5-[2-(4-nitro-phenylamino)-pyrimidin-4-yl]-3H-thiazol-2-one] | 16 | 730 | 77 | 70 | 25 | 160 | 1200 |  |
| CCn1c(C)c(-c2ccnc(Nc3ccc(S(=O)(=O)O)cc3)n2)sc1=O [Compound 53, 4-[4-(3-Ethyl-4-methyl-2-oxo-2,3-dihydro-thiazol-5-yl)-pyrimidin-2-ylamino]-benzenesulfonic acid] |  |  | 180 |  |  | 590 |  | 43.5 |
| COc1ccc(C)c(Nc2nccc(-c3sc(=O)n(C)c3C)n2)c1 [Compound 56, 5-[2-(5-Methoxy-2-methyl-phenylamino)-pyrimidin-4-yl]-3,4-dimethyl-3H-thiazol-2-one] | 460 |  |  | 2900 | 2600 |  |  | 3500 |
| COCCNS(=O)(=O)c1ccc(Nc2nccc(-c3sc(=O)n(C)c3C)n2)cc1 [Compound 65, 4-[4-(3,4-Dimethyl-2-oxo-2,3-dihydro-thiazol-5-yl)-pyrimidin-2-ylamino]-N-(2-methoxy-ethyl)-benzenesulfonamide] | 14 | 4.1 |  | 940 | 530 |  |  | 9 |
| Cc1c(-c2ccnc(Nc3cc(N)cc(C(F)(F)F)c3)n2)sc(=O)n1C [Compound 71, 5-[2-(3-Amino-5-trifluoromethyl-phenylamino)-pyrimidin-4-yl]-3,4-dimethyl-3H-thiazol-2-one] |  | 140 |  | 73 | 110 | 280 | 170 | 5.3 |
| Cc1c(-c2ccnc(Nc3ccc(S(=O)(=O)NCc4ccccc4)cc3)n2)sc(=O)n1C [Compound 73, N-Benzyl-4-[4-(3,4-dimethyl-2-oxo-2,3-dihydro-thiazol-5-yl)-pyrimidin-2-ylamino]-benzenesulfonamide] | 380 | 1100 | 80 |  |  | 650 |  | 66.5 |
| Cc1c(-c2ccnc(Nc3cccc(S(=O)(=O)NC(C)C)c3)n2)sc(=O)n1C [Compound 74, 3-[4-(3,4-Dimethyl-2-oxo-2,3-dihydro-thiazol-5-yl)-pyrimidin-2-ylamino]-N-isopropyl-benzenesulfonamide] | 50 |  | 1400 | 2700 | 870 |  | 980 | 75 |
| Cc1ccc(Nc2nccc(-c3sc(=O)n(C)c3C)n2)cc1S(=O)(=O)N1CCOCC1 [Compound 78, 3,4-Dimethyl-5-{2-[4-methyl-3-(morpholine-4-sulfonyl)-phenylamino]-pyrimidin-4-yl}-3H-thiazol-2-one] | 27 |  | 2100 | 1200 | 1100 |  |  | 130 |
| Cc1c(-c2ccnc(Nc3cccc(S(=O)(=O)N4CCOCC4)c3)n2)sc(=O)n1C [Compound 79, 3,4-Dimethyl-5-{2-[3-(morpholine-4-sulfonyl)-phenylamino]-pyrimidin-4-yl}-3H-thiazol-2-one] |  |  | 1500 | 2600 | 1400 |  |  | 35.6 |
| Cc1c(-c2ccnc(Nc3ccc(CN)cc3)n2)sc(=O)n1C [Compound 80, 5-[2-(4-Aminomethyl-phenylamino)-pyrimidin-4-yl]-3,4-dimethyl-3H-thiazol-2-one] |  |  |  |  | 380 |  |  | 69.8 |
| Cc1cc(Nc2nccc(-c3sc(=O)n(C)c3C)n2)cnc1Cl [Compound 81, 5-[2-(6-Chloro-5-methyl-pyridin-3-ylamino)-pyrimidin-4-yl]-3,4-dimethyl-3H-thiazol-2-one] |  |  |  |  | 500 |  |  | 3.2 |
| Cc1c(-c2ccnc(Nc3ccc(CNC(=O)c4ccccn4)cc3)n2)sc(=O)n1C [Compound 82, Pyridine-2-carboxylic acid 4-[4-(3,4-dimethyl-2-oxo-2,3-dihydro-thiazol-5-yl)-pyrimidin-2-ylamino]-benzylamide] |  |  |  |  | 63 |  |  | 28.1 |
